Results: article PMC8448738, “Structural insight into the mechanism of energy transfer in cyanobacterial phycobilisomes” (Nature Communications, 2021)

Assays:
Test in all cases: cryo-EM structure of intact phycobilisome, […] Å
Format in all cases: binding
[1] = molecular target: T1, ApcF (Synechococcus 7002) (Picosynechococcus sp. PCC 7002, UniProt O68967); conditions: covalent; native chromophore
T1 construct: native, within intact phycobilisome purified from cells; mildly glutaraldehyde cross-linked; trimer A3

[2] = molecular target: T2, ApcE (LCM), Synechococcus 7002 (Picosynechococcus sp. PCC 7002, UniProt O68973); conditions: covalent; native chromophore; in alpha-LCM domain
T2 construct: native, within intact phycobilisome; N-terminal alpha-LCM domain holds the bilin; three REP domains
T2 sequence (O68973 1-886): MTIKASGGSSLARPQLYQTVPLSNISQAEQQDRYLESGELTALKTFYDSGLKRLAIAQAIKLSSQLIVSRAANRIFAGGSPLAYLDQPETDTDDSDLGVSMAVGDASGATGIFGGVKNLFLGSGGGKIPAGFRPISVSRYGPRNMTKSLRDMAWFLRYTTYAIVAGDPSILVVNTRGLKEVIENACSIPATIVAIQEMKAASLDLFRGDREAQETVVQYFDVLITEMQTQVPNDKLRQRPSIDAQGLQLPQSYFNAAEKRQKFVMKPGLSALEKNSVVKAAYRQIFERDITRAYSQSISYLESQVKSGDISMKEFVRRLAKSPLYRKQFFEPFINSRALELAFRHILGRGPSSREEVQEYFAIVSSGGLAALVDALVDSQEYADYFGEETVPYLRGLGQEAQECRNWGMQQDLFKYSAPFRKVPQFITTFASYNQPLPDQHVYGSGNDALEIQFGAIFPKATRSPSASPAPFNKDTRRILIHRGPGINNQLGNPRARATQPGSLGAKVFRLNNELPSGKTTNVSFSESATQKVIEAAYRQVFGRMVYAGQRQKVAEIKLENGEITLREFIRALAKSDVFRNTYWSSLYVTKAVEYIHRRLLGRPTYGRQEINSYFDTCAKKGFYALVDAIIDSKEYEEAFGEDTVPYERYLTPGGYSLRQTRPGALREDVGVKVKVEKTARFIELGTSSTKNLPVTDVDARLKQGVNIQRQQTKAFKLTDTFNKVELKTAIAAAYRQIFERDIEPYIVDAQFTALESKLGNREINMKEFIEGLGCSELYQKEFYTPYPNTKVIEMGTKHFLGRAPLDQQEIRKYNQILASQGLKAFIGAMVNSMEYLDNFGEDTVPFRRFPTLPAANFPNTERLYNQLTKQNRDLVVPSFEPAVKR

[3] = molecular target: T3, ApcD (Synechococcus 7002) (Picosynechococcus sp. PCC 7002, UniProt O68966); conditions: covalent; native chromophore
T3 construct: native, within intact phycobilisome purified from cells; mildly glutaraldehyde cross-linked; paired with ApcB in trimer A4

[4] = molecular target: T4, ApcB (Synechococcus 7002) (Picosynechococcus sp. PCC 7002, UniProt O68970); conditions: covalent; native chromophore
T4 construct: native, within intact phycobilisome purified from cells; mildly glutaraldehyde cross-linked
T4 sequence (O68970 1-161): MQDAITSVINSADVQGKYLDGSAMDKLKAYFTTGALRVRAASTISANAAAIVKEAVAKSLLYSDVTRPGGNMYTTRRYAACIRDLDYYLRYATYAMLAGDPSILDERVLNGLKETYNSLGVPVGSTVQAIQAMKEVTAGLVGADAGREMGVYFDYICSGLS

[5] = molecular target: T5, ApcA (Synechococcus 7002) (Picosynechococcus sp. PCC 7002, UniProt B1XQM2); conditions: covalent; native chromophore
T5 construct: native, within intact phycobilisome purified from cells; mildly glutaraldehyde cross-linked
T5 sequence (B1XQM2 2-161): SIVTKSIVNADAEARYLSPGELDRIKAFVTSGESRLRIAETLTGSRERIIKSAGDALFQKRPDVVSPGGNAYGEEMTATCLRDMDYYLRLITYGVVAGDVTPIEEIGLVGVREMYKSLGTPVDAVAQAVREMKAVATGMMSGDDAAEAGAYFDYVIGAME

CC=C1C(=Cc2[nH]c(C=C3N=C(C=C4NC(=O)C(CC)=C4C)C(C)=C3CCC(=O)O)c(CCC(=O)O)c2C)NC(=O)C1C (centres unmarked) [phycocyanobilin]
cryo-EM structure of intact phycobilisome, 3.5 Å [1]: The bilins of ApcF (orange), ApcE (red), and ApcA (forest green) are shown | cryo-EM structure of intact phycobilisome, 3.5 Å [2]: The bilins of ApcF (orange), ApcE (red), and ApcA (forest green) are shown | cryo-EM structure of intact phycobilisome, 3.5 Å [3]: Only the bilin of ApcD is shown with its ring-A through ring-D indicated. | cryo-EM structure of intact phycobilisome, 3.5 Å [4]: Y116 is located between αApcD and the bilin of ApcB^A4-II | cryo-EM structure of intact phycobilisome, 3.5 Å [5]: The bilins of ApcF (orange), ApcE (red), and ApcA (forest green) are shown
